Source: ChEMBL document CHEMBL5532675, “Discovery of 4-Ethoxy-6-chloro-5-azaindazoles as Novel PDE4 Inhibitors for the Treatment of Alcohol Use Disorder and Alcoholic Liver Diseases” (J Med Chem, 2024)
Active and inactive are the calls of the source. The rule behind the calls is not given here.

Assays:
[1] = target: 3',5'-cyclic-AMP phosphodiesterase 4B (Homo sapiens, UniProt Q07343); assay: Inhibition of PDE4B1 (unknown origin) using FAM-cyclic-3',5'-AMP as substrate incubated for 1 hrs by fluorescence polarization based IMAP assay
Sequence of 3',5'-cyclic-AMP phosphodiesterase 4B (Q07343 whole entry): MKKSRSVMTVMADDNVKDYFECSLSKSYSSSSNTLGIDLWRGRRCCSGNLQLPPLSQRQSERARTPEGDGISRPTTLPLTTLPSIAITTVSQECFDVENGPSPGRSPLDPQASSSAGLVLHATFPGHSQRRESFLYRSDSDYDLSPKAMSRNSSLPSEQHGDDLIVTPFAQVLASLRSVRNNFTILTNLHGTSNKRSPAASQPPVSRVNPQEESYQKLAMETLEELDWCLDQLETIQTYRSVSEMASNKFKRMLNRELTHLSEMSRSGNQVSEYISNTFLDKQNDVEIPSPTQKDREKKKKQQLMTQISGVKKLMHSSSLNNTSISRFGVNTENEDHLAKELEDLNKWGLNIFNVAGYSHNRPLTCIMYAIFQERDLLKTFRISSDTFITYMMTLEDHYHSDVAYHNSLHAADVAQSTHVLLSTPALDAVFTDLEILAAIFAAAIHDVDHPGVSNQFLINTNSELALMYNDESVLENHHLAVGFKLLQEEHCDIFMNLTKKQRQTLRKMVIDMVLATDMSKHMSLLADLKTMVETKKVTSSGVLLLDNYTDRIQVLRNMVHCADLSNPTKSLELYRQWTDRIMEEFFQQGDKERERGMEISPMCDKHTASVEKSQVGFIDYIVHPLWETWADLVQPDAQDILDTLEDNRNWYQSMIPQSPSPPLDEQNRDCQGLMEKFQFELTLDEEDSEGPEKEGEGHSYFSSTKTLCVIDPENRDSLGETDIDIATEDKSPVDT

[2] = target: 3',5'-cyclic-AMP phosphodiesterase 4D (Homo sapiens, UniProt Q08499); assay: Inhibition of PDE4D7 (unknown origin) using FAM-cyclic-3',5'-AMP as substrate at 10 nM incubated for 1 hrs by fluorescence polarization based IMAP assay relative to control
Sequence of 3',5'-cyclic-AMP phosphodiesterase 4D (Q08499 whole entry): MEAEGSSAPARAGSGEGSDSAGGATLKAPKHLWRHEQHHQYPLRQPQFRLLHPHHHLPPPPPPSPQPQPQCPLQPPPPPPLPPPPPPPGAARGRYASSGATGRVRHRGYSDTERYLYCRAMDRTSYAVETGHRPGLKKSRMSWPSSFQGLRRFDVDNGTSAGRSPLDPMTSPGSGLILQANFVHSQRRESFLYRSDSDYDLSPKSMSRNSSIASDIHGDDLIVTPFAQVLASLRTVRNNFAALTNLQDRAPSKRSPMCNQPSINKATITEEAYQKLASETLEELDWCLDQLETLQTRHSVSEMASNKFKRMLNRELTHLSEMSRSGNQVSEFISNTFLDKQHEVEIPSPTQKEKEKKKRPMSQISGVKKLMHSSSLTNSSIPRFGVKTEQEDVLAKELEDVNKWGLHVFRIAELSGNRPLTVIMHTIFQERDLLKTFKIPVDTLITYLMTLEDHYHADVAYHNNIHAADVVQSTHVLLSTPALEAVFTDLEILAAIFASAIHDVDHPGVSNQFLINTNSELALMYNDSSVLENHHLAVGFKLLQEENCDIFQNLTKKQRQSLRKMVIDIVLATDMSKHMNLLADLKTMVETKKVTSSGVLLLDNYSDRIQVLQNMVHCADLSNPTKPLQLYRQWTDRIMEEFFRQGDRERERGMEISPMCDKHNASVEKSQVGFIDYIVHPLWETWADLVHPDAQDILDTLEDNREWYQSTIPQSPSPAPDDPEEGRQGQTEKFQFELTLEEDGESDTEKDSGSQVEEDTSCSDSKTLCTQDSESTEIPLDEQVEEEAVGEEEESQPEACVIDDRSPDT

SH-SY5Y [3] = assay: Cytotoxicity against human SH-SY5Y cells assessed as reduction in cell viability incubated for 48 hrs by MTT assay; assay type: toxicity, cell-based
HT-22 = assay: Cytotoxicity against mouse HT-22 cells assessed as reduction in cell viability incubated for 48 hrs by MTT assay; assay type: toxicity, cell-based; settings: ht-22, 48 h
[4] = target: cGMP-inhibited 3',5'-cyclic phosphodiesterase 3B (Homo sapiens) (UniProt Q13370); assay: Inhibition of PDE3B (unknown origin) using FAM-cyclic-3',5'-AMP as substrate at 10 uM incubated for 1 hrs by fluorescence polarization based IMAP assay relative to control
Sequence of cGMP-inhibited 3',5'-cyclic phosphodiesterase 3B (Homo sapiens) (Q13370 whole entry, looked up): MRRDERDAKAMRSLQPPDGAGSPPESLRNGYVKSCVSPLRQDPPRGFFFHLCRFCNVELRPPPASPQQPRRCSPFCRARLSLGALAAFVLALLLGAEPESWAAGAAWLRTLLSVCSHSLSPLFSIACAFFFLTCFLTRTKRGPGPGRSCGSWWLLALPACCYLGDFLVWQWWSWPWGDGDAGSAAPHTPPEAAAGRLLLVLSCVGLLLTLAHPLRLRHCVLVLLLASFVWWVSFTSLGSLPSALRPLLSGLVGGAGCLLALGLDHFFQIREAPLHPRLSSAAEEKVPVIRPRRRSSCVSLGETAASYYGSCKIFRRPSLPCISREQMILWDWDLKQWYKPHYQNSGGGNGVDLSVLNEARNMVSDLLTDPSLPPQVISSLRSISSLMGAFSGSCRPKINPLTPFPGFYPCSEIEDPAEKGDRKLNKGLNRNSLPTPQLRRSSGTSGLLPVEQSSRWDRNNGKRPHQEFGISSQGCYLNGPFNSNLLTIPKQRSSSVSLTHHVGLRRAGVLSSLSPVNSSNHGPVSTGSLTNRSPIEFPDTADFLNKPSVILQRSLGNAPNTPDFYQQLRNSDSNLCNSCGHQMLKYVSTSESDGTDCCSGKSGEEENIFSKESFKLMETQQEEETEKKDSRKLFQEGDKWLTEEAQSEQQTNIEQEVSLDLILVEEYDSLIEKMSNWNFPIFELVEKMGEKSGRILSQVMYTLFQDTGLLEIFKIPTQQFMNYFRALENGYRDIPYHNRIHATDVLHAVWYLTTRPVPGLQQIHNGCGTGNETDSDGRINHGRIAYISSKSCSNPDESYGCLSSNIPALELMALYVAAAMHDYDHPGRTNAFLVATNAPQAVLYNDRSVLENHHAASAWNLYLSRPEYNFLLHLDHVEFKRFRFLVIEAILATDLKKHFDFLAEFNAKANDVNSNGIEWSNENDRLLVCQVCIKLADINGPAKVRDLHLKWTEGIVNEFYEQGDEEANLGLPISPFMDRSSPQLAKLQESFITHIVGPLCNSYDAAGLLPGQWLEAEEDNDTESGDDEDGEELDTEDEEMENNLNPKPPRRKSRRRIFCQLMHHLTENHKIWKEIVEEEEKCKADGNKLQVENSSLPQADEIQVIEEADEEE

[5] = target: High affinity 3',5'-cyclic-AMP phosphodiesterase 7A (Homo sapiens) (UniProt Q13946); assay: Inhibition of PDE7A (unknown origin) using FAM-cyclic-3',5'-AMP as substrate at 10 uM incubated for 1 hrs by fluorescence polarization based IMAP assay relative to control
Sequence of High affinity 3',5'-cyclic-AMP phosphodiesterase 7A (Homo sapiens) (Q13946 whole entry): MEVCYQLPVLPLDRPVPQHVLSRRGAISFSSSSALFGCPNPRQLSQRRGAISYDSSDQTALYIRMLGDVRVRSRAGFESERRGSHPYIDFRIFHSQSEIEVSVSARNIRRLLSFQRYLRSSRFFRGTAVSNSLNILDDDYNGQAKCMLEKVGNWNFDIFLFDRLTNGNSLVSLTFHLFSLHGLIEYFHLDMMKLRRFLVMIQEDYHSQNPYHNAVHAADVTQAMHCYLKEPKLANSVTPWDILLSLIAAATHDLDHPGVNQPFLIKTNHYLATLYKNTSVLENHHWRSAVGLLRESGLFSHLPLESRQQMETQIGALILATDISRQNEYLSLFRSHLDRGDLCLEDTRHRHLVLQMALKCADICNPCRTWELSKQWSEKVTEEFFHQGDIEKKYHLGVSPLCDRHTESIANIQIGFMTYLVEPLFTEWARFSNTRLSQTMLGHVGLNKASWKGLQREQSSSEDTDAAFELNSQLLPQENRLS

[6] = Selectivity ratio for inhibition of PDE9A (unknown origin) using FAM-cyclic-3',5'-AMP as substrate to inhibition of PDE4D7 (unknown origin) using FAM-cyclic-3',5'-AMP as substrate
[7] = Selectivity ratio for inhibition of PDE7A (unknown origin) using FAM-cyclic-3',5'-AMP as substrate to inhibition of PDE4B1 (unknown origin) using FAM-cyclic-3',5'-AMP as substrate
SH-SY5Y [8] = assay: Protection against alcohol-induced cytotoxicity in human SH-SY5Y cells assessed as increase in cell viability at 0.25 to 1 uM preincubated with compound for 1 hrs followed by ethanol administration and measured after 24 hrs by CCK8 assay; assay type: functional, cell-based; settings: dose 0.25-1 µM, time 25.0 hrs
[9] = Drug concentration in Sprague-Dawley rat liver at 10 mg/kg, po administered as single dose for 1 hrs by LC-MS analysis; assay type: ADME, organism-based; settings: read-out: Ct
[10] = Drug concentration in Sprague-Dawley rat brain at 10 mg/kg, po administered as single dose for 1 hrs by LC-MS analysis; assay type: ADME, organism-based; settings: read-out: Ct
[11] = Half-life in Sprague-Dawley rat at 2 mg/kg, iv measured after 24 hrs by LC-MS analysis; assay type: ADME, organism-based; settings: in vivo
[12] = Clearance in Sprague-Dawley rat at 2 mg/kg, iv measured after 24 hrs by LC-MS analysis; assay type: ADME, organism-based; settings: in vivo
[13] = Volume of distribution at steady state in Sprague-Dawley rat at 2 mg/kg, iv measured after 24 hrs by LC-MS analysis; assay type: ADME, organism-based; settings: in vivo, read-out: Vdss
[14] = Half-life in Sprague-Dawley rat at 10 mg/kg, po measured after 24 hrs by LC-MS analysis; assay type: ADME, organism-based; settings: in vivo
[15] = Cmax in Sprague-Dawley rat at 10 mg/kg, po measured after 24 hrs by LC-MS analysis; assay type: ADME, organism-based; settings: in vivo
[16] = Toxicity in ketamine/xylazine-induced anesthetic C57BL/6J mouse model assessed as emetogenic potential by measuring reduction in anesthesia duration at 1 to 5 mg/kg, po preadministered with compound for 15 mins followed by ketamine/xylazine administration; assay type: organism-based; settings: in vivo, 0.25 h, dose 1-5 mg/kg
Mus musculus [17] = assay: Protection against alcohol use disorder in C57BL/6J mouse model assessed as decrease in alcohol preference at 1 to 2.5 mg/kg, po pre-trained with alcohol and water for 42 days with subsequent compound addition on day 22 and measured after 3 weeks by two-bottle choice test; assay type: functional, organism-based; settings: dose 1-2.5 mg/kg
Mus musculus [18] = assay: Protection against alcohol exposure-induced anxiety like behavior in C57BL/6J mouse model assessed as distance travelled at 1 to 2.5 mg/kg, po pre-trained with alcohol and water for 42 days with subsequent compound addition from day 22 to day 42 followed by 3.5 hrs of darkness and compound administration for 30 mins followed by water replacement with alcohol for 4 hrs and measured 24 hrs after alcohol withdrawal by open field test; assay type: functional, organism-based; settings: dose 1-2.5 mg/kg
Mus musculus [19] = assay: (§1) Protection against alcohol-induced motor impairment in C57BL/6J mouse model assessed as increase in distance travelled at 1 to 2.5 mg/kg, po preadministered with compound every 24 hrs for 3 times followed by alcohol administration 30 mins post last dose and further treated with compound for 3 days followed by alcohol administration 30 mins post last dose and measured at 2 to 20 mins by open field test; assay type: functional, organism-based; settings: dose 1-2.5 mg/kg, time 8702-8720 min
Mus musculus [20] = assay: as §1, with “recovery of average speed” for “increase in distance travelled”; assay type: functional, organism-based; settings: dose 1-2.5 mg/kg, time 8702-8720 min
Mus musculus [21] = assay: (§2) Protection against alcoholic liver disease in NIAAA C57BL/6J mouse model assessed as decrease in liver index at 2.5 mg/kg, po preadministered with 1 to 4 % of alcohol for 10 days with subsequent compound addition from day 6 to 11 and further administered with 31.25 % alcohol on day 11 and measured after 9 hrs; assay type: functional, organism-based; settings: time 5.0 day
Mus musculus [22] = assay: as §2, with “serum ALT level” for “liver index”, “at 1 to” for “at”, “hrs by absorbance based plate analyzer” for “hrs”; assay type: functional, organism-based; settings: dose 1-2.5 mg/kg, time 5.0 day
Mus musculus [23] = assay: as §2, with “serum AST level” for “liver index”, “at 1 to” for “at”, “hrs by absorbance based plate analyzer” for “hrs”; assay type: functional, organism-based; settings: dose 1-2.5 mg/kg, time 5.0 day
Mus musculus [24] = assay: as §2, with “improvement of” for “decrease in”, “injury” for “index”, “at 1 to” for “at”, “hrs by H&E staining based light microscopic analysis” for “hrs”; assay type: functional, organism-based; settings: dose 1-2.5 mg/kg, time 5.0 day
Mus musculus [25] = assay: as §2, with “improvement of steatosis” for “decrease in liver index”, “at 1 to” for “at”, “hrs by H&E staining based light microscopic analysis” for “hrs”; assay type: functional, organism-based; settings: dose 1-2.5 mg/kg, time 5.0 day
Mus musculus [26] = assay: as §2, with “improvement of” for “decrease in”, “injury” for “index”, “at 1 to” for “at”, “hrs by Oil Red O staining based light microscopic analysis” for “hrs”; assay type: functional, organism-based; settings: dose 1-2.5 mg/kg, time 5.0 day
Mus musculus [27] = assay: as §2, with “reduction” for “decrease”, “serum IL-6 level” for “liver index”, “at 1 to” for “at”, “hrs by ELISA” for “hrs”; assay type: functional, organism-based; settings: dose 1-2.5 mg/kg, time 5.0 day
Mus musculus [28] = assay: as §2, with “reduction” for “decrease”, “serum TNF-alpha level” for “liver index”, “at 1 to” for “at”, “hrs by ELISA” for “hrs”; assay type: functional, organism-based; settings: dose 1-2.5 mg/kg, time 5.0 day
Mus musculus [29] = assay: as §2, with “reduction” for “decrease”, “IL-6 mRNA level” for “index”, “at 1 to” for “at”, “hrs by RT-qPCR analysis” for “hrs”; assay type: functional, organism-based; settings: dose 1-2.5 mg/kg, time 5.0 day
Mus musculus [30] = assay: as §2, with “reduction” for “decrease”, “IL-1beta mRNA level” for “index”, “at 1 to” for “at”, “hrs by RT-qPCR analysis” for “hrs”; assay type: functional, organism-based; settings: dose 1-2.5 mg/kg, time 5.0 day

With `CCOc1nc(Cl)cc2c1cnn2CCCC(=O)O` as the molecule, how does the IC50 [1] read?
The IC50 was 31 nM.

And the inhibition [2]?
Its inhibition is 21%.

What about the Activity (SH-SY5Y [3]) of the same molecule?
Its Activity is “Non-Toxic”.

And the Activity (HT-22)?
Its Activity is “Non-Toxic”.

And the inhibition [4]?
The inhibition was 10%.

What about the inhibition [5] of the same molecule?
Its inhibition is 11%.

What about the Selectivity ratio [6] of the same molecule?
Its Selectivity ratio is greater than 267.

What about the Selectivity ratio [7] of the same molecule?
The Selectivity ratio was greater than 267.

And the Activity (SH-SY5Y [8])?
The Activity was “Active”.

What about the concentration at 1 h [9] of the same molecule?
Its concentration at 1 h is 11200 ng/g.

What about the concentration at 1 h [10] of the same molecule?
Its concentration at 1 h is 322 ng/g.

And the half-life [11]?
The half-life was 3.65 h.

And the clearance [12]?
The clearance was 0.211 mL/min/kg.

What about the Vd [13] of the same molecule?
Its Vd is 0.0719 L/kg.

What about the half-life [14] of the same molecule?
The half-life was 9.3 h.

What about the Cmax [15] of the same molecule?
The Cmax was 43300 ng/mL.

And the Activity [16]?
The Activity was “Non-Toxic”.

What about the Activity (Mus musculus [17]) of the same molecule?
Its Activity is “Active”.

What about the Activity (Mus musculus [18]) of the same molecule?
Its Activity is “Active”.

And the Activity (Mus musculus [19])?
Its Activity is “Active”.

And the Activity (Mus musculus [20])?
The Activity was “Active”.

What about the Activity (Mus musculus [21]) of the same molecule?
The Activity was “Active”.

What about the Activity (Mus musculus [22]) of the same molecule?
The Activity was “Active”.

What about the Activity (Mus musculus [23]) of the same molecule?
Its Activity is “Active”.

And the Activity (Mus musculus [24])?
The Activity was “Active”.

What about the Activity (Mus musculus [25]) of the same molecule?
The Activity was “Active”.

And the Activity (Mus musculus [26])?
The Activity was “Active”.

And the Activity (Mus musculus [27])?
The Activity was “Active”.

And the Activity (Mus musculus [28])?
The Activity was “Active”.

And the Activity (Mus musculus [29])?
Its Activity is “Active”.

And the Activity (Mus musculus [30])?
Its Activity is “Active”.
